{"source": "paper PMC2467525", "about": "(Acta Crystallographica Section D: Biological Crystallography, 2008)", "target": "PvlArgDC (pyruvoyl-dependent arginine decarboxylase) (Methanocaldococcus jannaschii, UniProt Q57764)", "sequence (Q57764 53-165)": "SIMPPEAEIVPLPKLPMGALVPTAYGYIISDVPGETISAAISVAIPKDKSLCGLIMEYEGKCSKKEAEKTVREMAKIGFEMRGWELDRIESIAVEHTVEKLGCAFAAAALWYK", "sequence (Q57764 1-52)": "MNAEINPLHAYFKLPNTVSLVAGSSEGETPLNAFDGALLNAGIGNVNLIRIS", "test": "X-ray crystal structure, […] A", "type": "binding", "conditions": "cocrystallized with 1-2 mM arginine, pH 6.7-7.3, 295 K; agmatine in all six active sites"}
{"smiles": "N=C(N)NCCCCN", "note": "[agmatine]", "values": [{"measurement": "X-ray crystal structure, 2.0 A", "result": "all six protomers were fully processed and contained the product agmatine at the active site"}]}
